Legend:
T. rubrum = assay: Inhibition of growth of Trichophyton rubrum by plant defensins (microtitre A595 antifungal assay); assay type: cell-based; conditions: ½ strength PDB, 30° C.
Protocol: (§1) The inhibitory effects of the plant defensins on the growth of Trichophyton rubrum, T. interdigitale, Microsporum fulvum and C. albicans (all obtained from the National Mycology Reference Centre, South Australia Pathology at the Women's and Children's Hospital, Adelaide, Australia) are measured essentially as described by Broekaert et al. (1990) FEMS Microbiol Lett 69:55-59.
(§2) Spores of T. rubrum, T. interdigitale and M. fulvum are isolated from sporulating fungus growing on ½ strength Sabouraud dextrose agar. Spores were removed from the plates by the addition of ½ strength potato dextrose broth (PDB). C. albicans cells are grown in Yeast Peptone Broth (YPD) for 16 h. Spore and cell concentrations are measured using a hemocytometer.
(§3) Antifungal assays are conducted in 96 well microtitre plates essentially as herein described. Wells are loaded with 20 μL of filter sterilized (0.22 Ξ m syringe filter, Millipore) defensin (10× stock for each final concentration) or water and 80 μL of 5×10^4 spores/mL (T. rubrum, T. interdigitale, M. fulvum) or 5,000 cells/mL (C. albicans) in ½ strength PDB. The plates are incubated at 30° C. Fungal growth is assayed by measuring optical density at 595 nm (A595) using a microtitre plate reader (SpectraMax Pro M2; Molecular Devices. Growth is allowed to proceed until the optical density (OD) of the fungus in the absence of any test defensin reached an OD of 0.2. Each test is performed in duplicate.

M. fulvum = assay: Inhibition of growth of Microsporum fulvum by plant defensins (microtitre A595 antifungal assay); assay type: cell-based; conditions: ½ strength PDB, 30° C., A595
Protocol: as §1, §2, §3

T. interdigitale = assay: Inhibition of growth of T. interdigitale by plant defensins (microtitre A595 antifungal assay); assay type: cell-based, Trichophyton interdigitale; conditions: ½ strength PDB, 30° C.
Protocol: as §1, §2, §3

T. albicans = assay: Inhibition of growth of C. albicans by plant defensins, Example 1 (microtitre A595 antifungal assay); assay type: cell-based; conditions: Table 3; ½ strength PDB, 30° C., A595
Protocol: as §1, §2, §3

C. albicans = assay: Inhibition of growth of Candida albicans, Example 2 antifungal assay; assay type: cell-based; conditions: Table 4; ½ strength PDB, 30° C., A595
Protocol: (§4) The inhibitory effects of the plant defensins on the growth of Candida albicans, Aspergillus fumigatus (obtained from the National Mycology Reference Centre, South Australia Pathology at the Women's and Children's Hospital, Adelaide, Australia), C. glabrata, C. tropicalis, A. flavus, A. niger, A. fumigants, Cryptococcus neoformans and C. gattii (obtained from Dee Carter, University of Sydney, New South Wales, Australia) are measured essentially as described by Broekaert et al. (1990) FEMS Microbiol Lett 69:55-59.
as §2, with “A. flavus. A. niger” for “T. rubrum, T. interdigitale”, “A. fumigatus” for “M. fulvum”, “albicans, C. glabrata, C. tropicalis, C. neoformans and C. gattii” for “albicans”
as §3, with “μm” for “Ξ m”, “(A. flavus, A. niger, A. fumigatus),” for “(T. rubrum, T. interdigitale, M. fulvum) or”, “albicans, C. glabrata, C. tropicalis) or 1×10^6 cells/mL (C. neoformans, C. gattii)” for “albicans)”

C. glabrata = assay: Inhibition of growth of C. glabrata, Example 2 antifungal assay; assay type: cell-based; conditions: ½ strength PDB, 30° C., A595
Protocol: as §4
as §2, with “A. flavus. A. niger” for “T. rubrum, T. interdigitale”, “A. fumigatus” for “M. fulvum”, “albicans, C. glabrata, C. tropicalis, C. neoformans and C. gattii” for “albicans”
as §3, with “μm” for “Ξ m”, “(A. flavus, A. niger, A. fumigatus),” for “(T. rubrum, T. interdigitale, M. fulvum) or”, “albicans, C. glabrata, C. tropicalis) or 1×10^6 cells/mL (C. neoformans, C. gattii)” for “albicans)”

C. tropicalis = assay: Inhibition of growth of C. tropicalis, Example 2 antifungal assay; assay type: cell-based; conditions: ½ strength PDB, 30° C., A595
Protocol: as §4
as §2, with “A. flavus. A. niger” for “T. rubrum, T. interdigitale”, “A. fumigatus” for “M. fulvum”, “albicans, C. glabrata, C. tropicalis, C. neoformans and C. gattii” for “albicans”
as §3, with “μm” for “Ξ m”, “(A. flavus, A. niger, A. fumigatus),” for “(T. rubrum, T. interdigitale, M. fulvum) or”, “albicans, C. glabrata, C. tropicalis) or 1×10^6 cells/mL (C. neoformans, C. gattii)” for “albicans)”

A. flavus = assay: Inhibition of growth of A. flavus, Example 2 antifungal assay; assay type: cell-based; conditions: ½ strength PDB, 30° C., A595
Protocol: as §4
as §2, with “A. flavus. A. niger” for “T. rubrum, T. interdigitale”, “A. fumigatus” for “M. fulvum”, “albicans, C. glabrata, C. tropicalis, C. neoformans and C. gattii” for “albicans”
as §3, with “μm” for “Ξ m”, “(A. flavus, A. niger, A. fumigatus),” for “(T. rubrum, T. interdigitale, M. fulvum) or”, “albicans, C. glabrata, C. tropicalis) or 1×10^6 cells/mL (C. neoformans, C. gattii)” for “albicans)”

A. niger = assay: Inhibition of growth of A. niger, Example 2 antifungal assay; assay type: cell-based; conditions: ½ strength PDB, 30° C., A595
Protocol: as §4
as §2, with “A. flavus. A. niger” for “T. rubrum, T. interdigitale”, “A. fumigatus” for “M. fulvum”, “albicans, C. glabrata, C. tropicalis, C. neoformans and C. gattii” for “albicans”
as §3, with “μm” for “Ξ m”, “(A. flavus, A. niger, A. fumigatus),” for “(T. rubrum, T. interdigitale, M. fulvum) or”, “albicans, C. glabrata, C. tropicalis) or 1×10^6 cells/mL (C. neoformans, C. gattii)” for “albicans)”

A. fumigatus = assay: Inhibition of growth of Aspergillus fumigatus, Example 2 antifungal assay; assay type: cell-based; conditions: ½ strength PDB, 30° C., A595
Protocol: as §4
as §2, with “A. flavus. A. niger” for “T. rubrum, T. interdigitale”, “A. fumigatus” for “M. fulvum”, “albicans, C. glabrata, C. tropicalis, C. neoformans and C. gattii” for “albicans”
as §3, with “μm” for “Ξ m”, “(A. flavus, A. niger, A. fumigatus),” for “(T. rubrum, T. interdigitale, M. fulvum) or”, “albicans, C. glabrata, C. tropicalis) or 1×10^6 cells/mL (C. neoformans, C. gattii)” for “albicans)”

C. neoformans = assay: Inhibition of growth of Cryptococcus neoformans, Example 2 antifungal assay; assay type: cell-based; conditions: ½ strength PDB, 30° C., A595
Protocol: as §4
as §2, with “A. flavus. A. niger” for “T. rubrum, T. interdigitale”, “A. fumigatus” for “M. fulvum”, “albicans, C. glabrata, C. tropicalis, C. neoformans and C. gattii” for “albicans”
as §3, with “μm” for “Ξ m”, “(A. flavus, A. niger, A. fumigatus),” for “(T. rubrum, T. interdigitale, M. fulvum) or”, “albicans, C. glabrata, C. tropicalis) or 1×10^6 cells/mL (C. neoformans, C. gattii)” for “albicans)”

C. gattii = assay: Inhibition of growth of C. gattii, Example 2 antifungal assay; assay type: cell-based; conditions: ½ strength PDB, 30° C., A595
Protocol: as §4
as §2, with “A. flavus. A. niger” for “T. rubrum, T. interdigitale”, “A. fumigatus” for “M. fulvum”, “albicans, C. glabrata, C. tropicalis, C. neoformans and C. gattii” for “albicans”
as §3, with “μm” for “Ξ m”, “(A. flavus, A. niger, A. fumigatus),” for “(T. rubrum, T. interdigitale, M. fulvum) or”, “albicans, C. glabrata, C. tropicalis) or 1×10^6 cells/mL (C. neoformans, C. gattii)” for “albicans)”

[1] = tested on: Trichophyton rubrum, T. interdigitale, Microsporum fulvum and C. albicans; assay: Inhibition assays of Example 1, summary across the range of fungal pathogens; assay type: cell-based; conditions: summary of Table 3, at the concentrations tested
Protocol: as §1, §2, §3

E. coli = assay type: cell-based, Escherichia coli; conditions: for IC50: Mueller-Hinton Broth, 37° C., 18 hours, up to 20 μM, read-out: IC50 against E. coli
Protocol: (§5) A single E. coli or B. subtilis colony was used to inoculate 5 ml of Luria-Bertani media and grown overnight at 37° C. The following day, the optical density of the culture was measured and the bacteria diluted to an optical density at 600 nm (OD600) of 0.01 in Mueller-Hinton Broth. Diluted E. coli or B. subtilis were added to 96-well plates with defensins at concentrations of 20 μM, 10 μM, 5 μM, 2.5 μM, 1.25 μM, 0.625 μM or 0.3125 μM. Plates were read at OD595 to obtain time zero data points. Plates were incubated at 37° C. for 18 hours before reading again at OD595 to assess the amount of bacterial growth.

B. subtilis = assay: Inhibition of the growth of Bacillus subtilis (OD595, 18 hours); assay type: cell-based; conditions: for IC50: Mueller-Hinton Broth, 37° C., 18 hours, up to 20 μM, read-out: IC50 against B. subtilis
Protocol: as §5

[2] = at the concentrations tested (0.3125-20 μM)

Row | Substance | IC50 against T. rubrum (T. rubrum) [µg/mL] | IC50 against M. fulvum (M. fulvum) [µg/mL] | IC50 against T. interdigitale (T. interdigitale) [µg/mL] | IC50 against T. albicans (T. albicans) [µg/mL] | IC50 against C. albicans (C. albicans) [µg/mL] | IC50 against C. glabrata (C. glabrata) [µg/mL] | IC50 against C. tropicalis (C. tropicalis) [µg/mL] | IC50 against A. flavus (A. flavus) [µg/mL] | IC50 against A. niger (A. niger) [µg/mL] | IC50 against A. fumigatus (A. fumigatus) [µg/mL] | IC50 against C. neoformans (C. neoformans) [µg/mL] | IC50 against C. gattii (C. gattii) [µg/mL] | Activity across the range of fungal pathogens [1] | IC50 (E. coli) [µM] | Inhibition of growth of E. coli (E. coli; [2]) | IC50 (B. subtilis) [µM] | Inhibition of growth of B. subtilis (B. subtilis; [2])
1 | HXL035: Class I plant defensin from Picramnia pentandra (KVCTKPSKFFKGLCGFDRDCTVACKKEGLASGFCQNKGFFNVVCVCRKPC; HXL035 Picramnia pentandra) | 2 | 2 | 1 | 18 | 18 | 10 | 6 | 25 | 6 | 7.5 | 5 | 20 | most effective | – | – | – | –
2 | HXL005: Class I plant defensin from Taraxcum kok-saghyz (KMCQTTSHAFSCVNDSGCSGSCEKQGFASGKCDGVRRRCTCYKKC; HXL005 Taraxcum kok-saghyz) | 3 | 5 | 3.5 | 22 | 22 | 11 | 12 | 25 | 7.5 | 11 | 5 | 14 | most effective | > 20 | did not inhibit the growth | > 20 | did not inhibit the growth
3 | HXL004: Class I plant defensin from Nicotiana benthamiana (RTCESQSHRFKGLCFSRSNCASVCHTEGFNGGHCRGFRRRCFCTRHC; HXL004 Nicotiana benthamiana) | 27.5 | 12 | 19 | 20 | 20 | 20 | 5 | >100 | 45 | 20 | 7 | 20 | intermediate activity | 2.5 | – | 2.6 | –
4 | HXL012: Class I plant defensin from Amaranthus retroflexus (RMCKAPSKLFRGMCGIRDSNCDSVCRAEGMAAGDCHGLRRRCICSRPC; HXL012 Amaranthus retroflexus) | 2 | 18 | 2 | 42 | 42 | >100 | 10 | 45 | 12.5 | 15 | 8 | 38 | intermediate activity | > 20 | – | 20 | –
